Like-named read-outs stand apart in the source and are kept apart here.
Legend:
[1] = system: L. amazonensis LV78 amastigotes; assay: Anti-amastigote activity in infected PEM, L. amazonensis LV78; type: cell-based; conditions: for IC50: infected PEM, 3 days, Giemsa
How it was run: (§1)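 Read-out was Giemsa-stained counts of amastigotes per 100 macrophages, used for IC50, after 72 h drug exposure at 37 °C of mouse peritoneal macrophages previously infected with late-log promastigotes.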

[2] = system: L. amazonensis LV78 promastigotes; assay: Anti-promastigote activity (MTS assay), L. amazonensis LV78; type: cell-based; conditions: 72 hours
How it was run: (§2)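 Promastigotes (1×10^5 per well) in Schneider's medium pH 6.9 with 10% FBS, exposed to serial compound concentrations for 72 h at 27 °C. Viability by MTS/PMS reduction over 4 h, OD 490 nm; IC50 derived.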

[3] = system: L. donovani HU3 promastigotes; assay: Anti-promastigote activity (MTS assay), L. donovani HU3; type: cell-based; conditions: 72 hours
How it was run: as §2

RAW264.7 cells [4] = assay: Cytotoxicity, RAW264.7 macrophages; type: cell-based; conditions: murine macrophages RAW264.7
Experimental: (§3) Promastigotes of visceral L. donovani Ld39 and LdHU3, and cutaneous L. amazonensis LV78, L. braziliensis UA847 and L. major FV1 were employed in the study. All strains were cultured in Schneider's Drosophila Medium (Invitrogen), pH 6.9 supplemented with 10% (v/v) heat inactivated fetal bovine serum (Hyclone) with 4 mM glutamine (Sigma) and 25 μg/mL gentamicin solution (Invitrogen) at 27° C. for 4 days. RAW264.7 cells were cultured in supplemented DMEM media with 10% heat inactivated FBS and 100 U/mL penicillin and 100 μg/mL of streptomycin. They were maintained at 37° C. in a humidified atmosphere with 5% CO2. The cells were split constantly after a confluent monolayer has been formed. The cells were harvested by a cell scraper.
(§4) IC50 values of known antileishmanials and the amine-containing flavonoid monomers of the present invention to promastigotes (L. amazonensis LV78, L major FV1, L. donovani HU3, L. donovani 39), macrophages (Raw 264.7 and PEM) and mouse fibroblast (L929) were determined. The anti-promastigotes activities and cytotoxicity of the amine-containing flavonoid monomers of the invention are shown in Table 1.

[5] = system: L. major FV1 promastigotes; assay: Anti-promastigote activity (MTS assay), L. major FV1; type: cell-based; conditions: 72 hours
How it was run: as §2

RAW264.7 cells [6] = assay: Reactive oxygen species (ROS) level, DCFDA, RAW264.7; type: cell-based, murine; conditions: for ROS induction in macrophages: RAW264.7
Experimental: (§5) 50,000 RAW264.7 were seeded in each well of black 96-well plates overnight. Next day, RAW264.7 cells were pre-loaded with 10 μM dichlorofluorescein diacetate (DCFDA) (Abcam) for 1 hr at 37° C. with 5% CO2. A control of non-DCFDA stained cells was also included. The DCFDA-contained supplemented DMEM media was removed. The cells were re-suspended with 10 μM or 30 μM of respective tested compounds and positive control, tert-butyl hydroperoxide. In Leishmania, 1×10^7 promastigotes were also pre-loaded with 10 μM DCFDA at 27° C. for 1 hr. After removing the DCFDA-contained media, the promastigotes were seeded into black 96-well plate and incubated with 30 μM of respective compounds or positive control. The ROS level was determined at different periods of time including 2, 4, 6, 8, 20, 46 and 72 hr using microplate reader (excitation: 485 nm and emission: […]).
(§6) The ROS levels in both macrophage RAW264.7 and L. amazonensis promastigotes was measured by dichlorofluorescein diacetate (DCFDA) dye which is permeable to the cells. With oxidative stress, DCFDA would be oxidized to fluorescent DCF which is an indicator of intracellular ROS level. RAW cells or L. amazonensis promastigotes were pre-loaded with 10 μM of DCFDA for 1 hr, washed and exposed to 39, FM09, pentamidine and amphotericin B for different period of time (2, 4, 6, 8, 20, 46 and 72 hr). The fluorescence level was measured at the 520 nm using 485 nm as an excitation wavelength. 0.1% DMSO or 0.3% DMSO was used as a solvent control. The fluorescent value has been subtracted from non-DCFDA stained cells. The values were presented as mean±standard error of mean.

[7] = system: L. donovani Ld39 promastigotes; assay: Anti-promastigote activity (MTS assay), L. donovani Ld39; type: cell-based; conditions: 72 hours
How it was run: as §2

[8] = system: L. amazonensis LV78 promastigotes; assay: Reactive oxygen species (ROS) level, DCFDA, promastigotes; type: cell-based; conditions: 30 μM
Experimental: as §5, §6

[9] = system: L. braziliensis UA847 amastigotes; assay: Anti-amastigote activity in infected PEM, L. braziliensis UA847; type: cell-based; conditions: 3 days, Giemsa, read-out: Anti-amastigote activity IC50, L. baziliensis UA847
Experimental: Mouse peritoneal elicited macrophages (PEM) were obtained as previously described (2). A round cover slip (12 mm in diameter) was placed into each well of 24-well culture plate. Mouse PEM were resuspended in supplemented DMEM media containing 10% heat inactivated FBS (v/v), 100 U/mL penicillin and 100 μg/mL streptomycin and seeded into each well at a cell density of 1×10^5 cells per 500 μL. Macrophages were allowed to attach overnight. Non-adherent cells were removed by gentle washing with un-supplemented DMEM media twice. Adherent macrophages were infected with late-log promastigotes at a parasite-to-macrophage ratio of 20:1 overnight at 37° C. with 5% CO2. Non-internalized promastigotes were removed by washing twice with un-supplemented DMEM media. Infected macrophages were further incubated in 500 μL of supplemented DMEM media in the presence or absence of FM for 72 hours at 37° C. After incubation, cover slips were stained with Giemsa and the percentage of macrophages infected and number of amastigotes per 100 macrophages was enumerated.
PEM cells were infected with late-log promastigotes (L. amazonensis LV78, L. braziliensis UA847, L. donovani HU3, L. donovani 39) for 24 hr at 37° C. Infected macrophages were then treated with various antileishmanials and incubated for 3 days at 37° C. After 3 days, the cover slips were stained with Giemsa. The number of amastigotes per 100 macrophages were determined and used to calculate IC50 values.

[10] = system: peritoneal elicited macrophages (PEM); assay: Cytotoxicity, peritoneal elicited macrophages (PEM); type: cell-based, mouse; conditions: peritoneal elicited macrophages; read-out: Cytotoxicity IC50, PEM
[11] = system: L. donovani Ld39 amastigotes (SSG-resistant); assay: Anti-amastigote activity in infected PEM, L. donovani Ld39; type: cell-based; conditions: for IC50: infected PEM, 3 days, Giemsa, SSG-resistant
How it was run: as §1

[12] = Cytotoxicity, RAW264.7 macrophages; type: cell-based; conditions: mouse, RAW264.7 macrophage cells; murine macrophages RAW264.7
Experimental: as §3, §4

[13] = Cytotoxicity, peritoneal elicited macrophages (PEM); type: cell-based, mouse; conditions: mouse, peritoneal elicited macrophages (PEM), peritoneal elicited macrophages; read-out: Cytotoxicity IC50, PEM

SMILES | RAW264.7 ROS Level, Relative fold (RF) (RAW264.7 cells [6]; 10 μM, 2 hr) | RAW264.7 ROS Level, Relative fold (RF) (RAW264.7 cells [6]; 10 μM, 4 hr) | RAW264.7 ROS Level, Relative fold (RF) (RAW264.7 cells [6]; 10 μM, 6 hr) | RAW264.7 ROS Level, Relative fold (RF) (RAW264.7 cells [6]; 10 μM, 8 hr) | RAW264.7 ROS Level, Relative fold (RF) (RAW264.7 cells [6]; 10 μM, 20 hr) | ROS induction in macrophages (RAW264.7 cells [6]; 10 μM) | RAW264.7 ROS Level, Relative fold (RF) (RAW264.7 cells [6]; 30 μM, 2 hr) | RAW264.7 ROS Level, Relative fold (RF) (RAW264.7 cells [6]; 30 μM, 4 hr) | RAW264.7 ROS Level, Relative fold (RF) (RAW264.7 cells [6]; 30 μM, 6 hr) | RAW264.7 ROS Level, Relative fold (RF) (RAW264.7 cells [6]; 30 μM, 20 hr) | RAW264.7 ROS Level, Relative fold (RF) (RAW264.7 cells [6]; 30 μM, 46 hr) | L. amazon LV78 promastigote ROS Level, Relative fold (RF) ([8]; 2 hr) | L. amazon LV78 promastigote ROS Level, Relative fold (RF) ([8]; 4 hr) | L. amazon LV78 promastigote ROS Level, Relative fold (RF) ([8]; 6 hr) | L. amazon LV78 promastigote ROS Level, Relative fold (RF) ([8]; 20 hr) | L. amazon LV78 promastigote ROS Level, Relative fold (RF) ([8]; 46 hr) | L. amazon LV78 promastigote ROS Level, Relative fold (RF) ([8]; 72 hr) | further results
C[C@@H]1[C@H](O)[C@@H](C)/C=C/C=C/C=C/C=C/C=C/C=C/C=C/[C@H](O[C@@H]2O[C@H](C)[C@@H](O)[C@H](N)[C@@H]2O)C[C@@H]2O[C@](O)(C[C@@H](O)C[C@@H](O)[C@H](O)CC[C@@H](O)C[C@@H](O)CC(=O)O[C@H]1C)C[C@H](O)[C@H]2C(=O)O [Amphotericin B] | 1.4 fold | 1.4 fold | 1.4 fold | 1.2 fold | 1.0 fold | No ROS induction | 1.6 fold | 1.6 fold | 1.5 fold | 1.3 fold | 1.3 fold | 4.5 fold | 5.6 fold | 7.5 fold | 21 fold | 27.1 fold | 24.9 fold | IC50 [1]: 0.055 ± 0.029 µM; IC50 [2]: 0.24 ± 0.03 µM; IC50 [3]: 0.2 µM; IC50 (RAW264.7 cells [4]): 12 ± 2.5 µM; IC50 [5]: 0.29 ± 0.05 µM; IC50 [7]: 0.095 ± 0.02 µM; IC50 [9]: 0.049 ± 0.01 µM; IC50 [10]: 7.4 ± 0.4 µM; IC50 [11]: 0.062 µM
N=C(N)c1ccc(OCCCCCOc2ccc(C(=N)N)cc2)cc1 [Pentamidine] | 0.9 fold | 0.9 fold | 0.9 fold | 0.8 fold | 0.8 fold | No ROS induction | 1.1 fold | 1.2 fold | 1.1 fold | 0.9 fold | 0.9 fold | 1.3 fold | 1.4 fold | 1.5 fold | 1.8 fold | about 2.6 fold | ~3.4 fold | Selective index (a)/(b) ([1]; IC50 RAW264.7 over IC50 L. amazonensis LV78 amastigotes): 1.9; IC50 ([1]; Leishmania amazonensis, 72 h): 15.7 ± 5.2 µM; IC50 ([2]; Leishmania amazonensis): 15.7 ± 5.2 µM; IC50 [12]: 30 ± 5 µM; IC50 ([5]; Leishmania major): 17.8 ± 2.2 µM; IC50 ([7]; Leishmania donovani): 5.3 ± 0.9 µM; L. amazon LV78 promastigote ROS Level, Relative fold (RF) ([8]; 46 hr, listed as pentamidine): 2.6 fold; IC50 ([9]; Leishmania braziliensis, 72 h): 1.1 ± 0.1 µM; IC50 [13]: 30.4 ± 11 µM; Selective index (a)/(c) ([11]; IC50 RAW264.7 over IC50 L. donovani Ld39 amastigotes): <1; IC50 ([11]; Leishmania donovani, 72 h): > 30 µM
